The text below walks through data of paper PMC11242993, “Evaluation of the Therapeutic Potential of Sulfonyl Urea Derivatives as Soluble Epoxide Hydrolase (sEH) Inhibitors” (Molecules, 2024).

In data set [1] the target is T1, human recombinant sEH (Homo sapiens, UniProt P34913).
T1 construct: purchased Cayman Chemical 10011671
T1 sequence (P34913 1-555): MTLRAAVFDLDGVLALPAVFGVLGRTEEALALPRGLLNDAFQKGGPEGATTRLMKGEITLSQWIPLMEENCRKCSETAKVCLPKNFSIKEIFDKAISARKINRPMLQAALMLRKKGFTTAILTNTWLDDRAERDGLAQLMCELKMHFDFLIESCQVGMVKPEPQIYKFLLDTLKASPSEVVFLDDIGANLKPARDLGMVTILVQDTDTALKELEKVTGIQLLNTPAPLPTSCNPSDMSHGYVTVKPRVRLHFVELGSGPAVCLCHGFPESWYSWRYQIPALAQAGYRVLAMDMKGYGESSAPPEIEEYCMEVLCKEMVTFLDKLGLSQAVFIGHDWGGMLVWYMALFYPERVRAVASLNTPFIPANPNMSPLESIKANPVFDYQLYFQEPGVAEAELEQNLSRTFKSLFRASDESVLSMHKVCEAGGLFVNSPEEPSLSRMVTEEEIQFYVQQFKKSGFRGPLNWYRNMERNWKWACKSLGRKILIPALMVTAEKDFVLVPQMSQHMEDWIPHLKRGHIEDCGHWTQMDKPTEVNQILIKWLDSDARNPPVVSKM
Kind of data set: Fluorescence-based sEH activity assay (PHOME substrate), human enzyme. The class given is biochemical. To be noted: for IC50: dose-dependent assay, read-out: Human sEH Inhibition IC50. As for the experimental part: A fluorescence-based sEH activity assay provided a convenient method for screening human epoxide hydrolase inhibitors. The assay utilized (3-Phenyl-oxiranyl)-acetic acid cyano-(6-methoxy-naphthalen-2-yl)-methyl ester (PHOME) as a substrate. […] The inhibitory function of the compounds on sEH activity was tested as detailed in the product manual from Cayman Chemical. Briefly, 3 mL sEH assay buffer (10×) was diluted with 27 mL HPLC-grade water. This final assay buffer, 25 mM bis-tris (pH 7.0), was used in the assay and for the dilution of the soluble epoxide hydrolase (sEH) enzyme. Amounts of 12 μL each of human and mouse recombinant sEH were thawed on ice. Prior to assaying, 588 μL cold assay buffer was added directly to the enzyme vial. An amount of 190 μL assay buffer and 5 μL solvent (40% DMSO in assay buffer) were added to the background wells. In the 100% initial activity wells, 185 μL assay buffer, 5 μL sEH, and 5 μL solvent were added. In inhibitor wells, 185 μL assay buffer, 5 μL solution of the synthesized compounds, and 5 μL of recombinant enzyme solution were added.
(§1) Average fluorescence (AF) of the background wells and 100% initial activity in the wells and of each of the inhibitors were determined. The background AF was subtracted from the 100% initial activity and inhibitor AFs. The % sEH activity is calculated as (inhbitited AF/% 100 initial activity) × 100.
(§2) Multiple concentrations of the inhibitors were tested followed by plotting of the percent activity as a function of inhibitor concentration to determine the IC50 values.

Data set [2] concerns the target T2, mouse recombinant sEH (Mus musculus, UniProt P34914).
T2 sequence (P34914 1-554): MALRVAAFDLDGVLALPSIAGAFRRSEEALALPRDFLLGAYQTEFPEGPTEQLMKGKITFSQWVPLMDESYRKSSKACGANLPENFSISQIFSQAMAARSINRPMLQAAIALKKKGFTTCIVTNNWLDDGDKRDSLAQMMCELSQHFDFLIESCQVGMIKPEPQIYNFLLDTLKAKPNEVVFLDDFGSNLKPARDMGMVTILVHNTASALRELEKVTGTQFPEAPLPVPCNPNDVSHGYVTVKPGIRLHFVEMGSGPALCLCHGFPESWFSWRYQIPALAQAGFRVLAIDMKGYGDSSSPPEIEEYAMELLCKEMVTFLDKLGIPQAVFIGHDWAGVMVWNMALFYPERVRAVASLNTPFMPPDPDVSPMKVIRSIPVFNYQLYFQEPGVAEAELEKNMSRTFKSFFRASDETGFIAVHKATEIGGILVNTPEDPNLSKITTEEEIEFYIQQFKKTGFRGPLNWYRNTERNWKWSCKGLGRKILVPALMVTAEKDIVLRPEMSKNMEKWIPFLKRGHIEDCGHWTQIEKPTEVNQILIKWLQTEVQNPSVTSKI
Kind of data set: Fluorescence-based sEH activity assay (PHOME substrate), mouse enzyme. The class given is biochemical. To be noted: dose-dependent assay; read-out: Mouse sEH Inhibition IC50. The method, then: A fluorescence-based sEH activity assay provided a convenient method for screening human epoxide hydrolase inhibitors. The assay utilized (3-Phenyl-oxiranyl)-acetic acid cyano-(6-methoxy-naphthalen-2-yl)-methyl ester (PHOME) as a substrate. […] The inhibitory function of the compounds on sEH activity was tested as detailed in the product manual from Cayman Chemical. Briefly, 3 mL sEH assay buffer (10×) was diluted with 27 mL HPLC-grade water. This final assay buffer, 25 mM bis-tris (pH 7.0), was used in the assay and for the dilution of the soluble epoxide hydrolase (sEH) enzyme. Amounts of 12 μL each of human and mouse recombinant sEH were thawed on ice. Prior to assaying, 588 μL cold assay buffer was added directly to the enzyme vial. An amount of 190 μL assay buffer and 5 μL solvent (40% DMSO in assay buffer) were added to the background wells. In the 100% initial activity wells, 185 μL assay buffer, 5 μL sEH, and 5 μL solvent were added. In inhibitor wells, 185 μL assay buffer, 5 μL solution of the synthesized compounds, and 5 μL of recombinant enzyme solution were added. To start the reaction, 5 μL of PHOME was added to each well at a final concentration of 0.25 mM. The microwell plate was shaken carefully for 10 s and covered with a plate cover.
as §1, §2

Data set [3] in a line: In vivo pharmacokinetic experiment. On the set-up: species or system C57BL/6J mice. To be noted: male, C57BL/6J, mouse, serum, other: oral and intraperitoneal; mice, oral and intraperitoneal administration, 10 mg/kg; read-out: plasma half-life. As for the experimental part: Twenty 8–9-week-old male C57BL/6J mice were taken for the in vivo pharmacokinetic experiment. They were divided into four groups, each containing five mice. Each group was used for either oral or intraperitoneal administration of compound 4f or 15a. Both the compounds were reconstituted in 5% DMSO, 5% TWEEN 80 in saline water (pH = 7.4). The mice were orally and intraperitoneally administered compounds at 10 mg/kg dose. Blood samples were collected at 0, 0.5, 1, 2, 4, 6, and 24 h after administration of the compound, and serum was isolated with the compound. For the pharmacokinetic study, 10 μL of serum samples from mice were extracted with a 2:1 mixture of LC/MS-grade chloroform and methanol, followed by intermittent vortexing, and then centrifuged at 4000 rpm for 10 min at 4 °C. Thereafter, the supernatant was collected and analyzed by LC−MS/MS to measure the concentrations of compounds 4f and 15a in the serum.

Regarding `O=S(=O)(NC(=S)NC12CC3CC(CC(C3)C1)C2)c1ccc(OC(F)(F)F)cc1` [Compound 6d, N-((adamantan-1-yl)carbamothioyl)-4-(trifluoromethoxy)benzenesulfonamide], in data set [1], the “Human sEH % Inhibition” value is 96.24%. The IC50 in data set [1] worked out at 0.00466 µM; in data set [2], 0.11 µM.

On to `COc1ccc(S(=O)(=O)NC(=O)NC23CC4CC(CC(C4)C2)C3)cc1` [Compound 4e], for which the “Human sEH % Inhibition” value in data set [1] is 95.39%. In addition, the figures for the IC50 in data set [1] and in data set [2] were 0.00294 µM and > 1 µM, respectively.

Consider `O=S(=O)(NC(=S)NC12CC3CC(CC(C3)C1)C2)c1ccccc1` [Compound 6a, N-((adamantan-1-yl)carbamothioyl)benzenesulfonamide], for which the “Human sEH % Inhibition” value in data set [1] amounted to 84.56%. Besides, the half-inhibitory concentration (IC50) in data set [1] is 0.13 µM; in data set [2], > 1 µM.

With `Cc1ccc(S(=O)(=O)NC(=O)NC23CC4CC(CC(C4)C2)C3)cc1` [Compound 4b, N-((adamantan-1-yl)carbamoyl)-4-methylbenzenesulfonamide], in data set [1], the “Human sEH % Inhibition” value is 91.78% and the 50% inhibitory concentration (IC50) is 0.0163 µM. Further, the IC50 in data set [2] turned out to be 0.85 µM.

Take `O=C(NC12CC3CC(CC(C3)C1)C2)NS(=O)(=O)c1ccc(Cl)cc1` [Compound 4k]: in data set [1], the “Human sEH % Inhibition” value is given as 96.47% and the IC50 was determined as 0.002 µM. For the same compound, the IC50 in data set [2] was > 1 µM.

As to `CC12CC3CC(C)(C1)CC(NC(=O)NS(=O)(=O)c1ccc(OC(F)(F)F)cc1)(C3)C2` [Compound 15a, N-((3,5-dimethyladamantan-1-yl)carbamoyl)-4-(trifluoromethoxy)benzenesulfonamide], in data set [1], the “Human sEH % Inhibition” value was 92.06% and the IC50 was found to be 0.00387 µM. Besides, the IC50 in data set [2] is 0.022 µM. Moreover, the half-life in data set [3] is < 2 h.

As for `CC12CC3CC(C)(C1)CC(NC(=O)NS(=O)(=O)c1ccc4ccccc4c1)(C3)C2` [Compound 15b, N-((3,5-dimethyladamantan-1-yl)carbamoyl)naphthalene-2-sulfonamide], in data set [1], the “Human sEH % Inhibition” value amounted to 47.05% and the IC50 was 0.95 µM. Also, the 50% inhibitory concentration (IC50) in data set [2] is > 1 µM.

In the case of `O=C(NC12CC3CC(CC(C3)C1)C2)NS(=O)(=O)c1ccc(F)cc1` [Compound 4j], in data set [1], the “Human sEH % Inhibition” value was determined as 85.26% and the IC50 is 0.12 µM. For the same compound, in data set [2], the IC50 was > 1 µM.

Consider `O=C(NC12CC3CC(CC(C3)C1)C2)NS(=O)(=O)c1ccccc1` [Compound 4a], for which, in data set [1], the “Human sEH % Inhibition” value is on record as 93.61% and the IC50 was 0.1 µM. Further, in data set [2], the IC50 was > 1 µM.

As for `O=C(NC1CCN(C(=O)NC23CC4CC(CC(C4)C2)C3)CC1)NS(=O)(=O)c1ccc(OC(F)(F)F)cc1` [Compound 18, N-(1-((adamantan-1-yl)carbamoyl)piperidin-4-yl)-N′-((4-(trifluoromethoxy)phenyl)sulfonyl)carbamimidic acid], the “Human sEH % Inhibition” value in data set [1] was determined as 60.80%. The concentration for half-maximal inhibition (IC50) worked out at 0.0387 µM in data set [1] and 0.71 µM in data set [2].
